Data: ChEMBL document CHEMBL3351846, “Synthesis and SAR studies of bis-chromenone derivatives for anti-proliferative activity against human cancer cells” (Bioorg Med Chem Lett, 2014)
Structures can show the parent of a compound that is named as a salt.

Assays:
Format in all cases: functional, cell-based
MDA-MB-231 = assay: Anti-proliferative activity against human MDA-MB-231 cells by XTT assay
NCI-H23 = assay: Anti-proliferative activity against human NCI-H23 cells by XTT assay
[1] = Anti-proliferative activity against human NUGC3 cells by XTT assay; settings: NUGC-3
[2] = Anti-proliferative activity against human HCT15 cells by XTT assay; settings: HCT-15
ACHN = assay: Anti-proliferative activity against human ACHN cells by XTT assay
[3] = Anti-proliferative activity against human PC3 cells by XTT assay; settings: PC-3

IC50 (MDA-MB-231)	IC50 (NCI-H23)	IC50 (ACHN)	SMILES	IC50 [1]	IC50 [2]	IC50 [3]
1.2 µM	1.32 µM	1.35 µM	COc1ccc2c(=O)c(Cc3coc4cccc(OCC5CCCCC5)c4c3=O)coc2c1	1.44 µM	1.45 µM	1.12 µM
> 10 µM	1.4 µM	0.51 µM	O=c1c(Cc2coc3ccccc3c2=O)coc2ccccc12	7.77 µM	> 10 µM	7.4 µM
> 10 µM	> 10 µM	> 10 µM	O=c1c(Cc2coc3cccc(OCC4CCCCC4)c3c2=O)coc2cc(Cl)ccc12	> 10 µM	> 10 µM	> 10 µM
3.32 µM	3.22 µM	2.25 µM	Cc1ccc2c(=O)c(Cc3coc4cccc(OCC5CCCCC5)c4c3=O)coc2c1	2.15 µM	2.22 µM	2.44 µM
3.22 µM	2.15 µM	2.1 µM	O=c1c(Cc2coc3cccc(OCC4CCCCC4)c3c2=O)coc2cc(O)ccc12	3.22 µM	2.11 µM	4.25 µM
> 10 µM	> 10 µM	3.99 µM	O=c1c(Cc2coc3cccc(OCc4ccccc4)c3c2=O)coc2ccccc12	7.22 µM	> 10 µM	4.83 µM
> 10 µM	7.55 µM	0.74 µM	O=c1c(Cc2coc3cccc(O)c3c2=O)coc2ccccc12	3.27 µM	> 10 µM	5.95 µM
> 10 µM	> 10 µM	> 10 µM	O=c1c(/C=C/c2coc3ccccc3c2=O)coc2ccccc12	> 10 µM	> 10 µM	> 10 µM
0.6 µM	0.49 µM	–	COc1cccc2c1C(=O)c1c(O)c3c(c(O)c1C2=O)C[C@@](O)(C(=O)CO)C[C@@H]3O[C@H]1C[C@H](N)[C@H](O)[C@H](C)O1 [DOXORUBICIN HYDROCHLORIDE]	0.38 µM	0.43 µM	–
4.11 µM	4.13 µM	4.23 µM	O=c1c(Cc2coc3cccc(OCC4CCCCC4)c3c2=O)coc2ccccc12	3.53 µM	4.24 µM	4.51 µM
9.11 µM	9.49 µM	8.2 µM	O=C1c2c(OCC3CCCCC3)cccc2OCC1Cc1coc2ccccc2c1=O (stereo not drawn)	8.42 µM	8.36 µM	9.38 µM
> 10 µM	> 10 µM	3.96 µM	CC(C)CCOc1cccc2occ(Cc3coc4ccccc4c3=O)c(=O)c12	> 10 µM	> 10 µM	> 10 µM
> 10 µM	> 10 µM	> 10 µM	O=c1c(CCc2coc3ccccc3c2=O)coc2ccccc12	> 10 µM	> 10 µM	> 10 µM
> 10 µM	> 10 µM	1.46 µM	CC(C)COc1cccc2occ(Cc3coc4ccccc4c3=O)c(=O)c12	> 10 µM	> 10 µM	1.72 µM
> 10 µM	1.93 µM	0.34 µM	COc1cccc2occ(Cc3coc4ccccc4c3=O)c(=O)c12	3.19 µM	3.43 µM	3.49 µM
